The subject of assay [1] is Echinochloa crusgali. Description: Weeding effect in post-emergence stage. As to conditions: 250 g/ha; 2 leaf stage; 15 days after application; fresh weight control rate. Type of assay: in vivo. The text has this:
(§1) The activity level criteria for harmful plant damage (i.e., growth control rate) are as follows: • Level 5: growth control rate is above 85%; • Level 4: growth control rate is greater than or equal to 60% and less than 85%; • Level 3: growth control rate is greater than or equal to 40% and less than 60%; • Level 2: growth control rate is greater than or equal to 20% and less than 40%; • Level 1: growth control rate is greater than or equal to 5% and less than 20%; • Level 0: growth control rate is less than 5%.
(§2) The above growth control rates are fresh weight control rates.
(§3) Experiment on weeding effect in post-emergence stage: monocotyledonous and dicotyledonous weed seeds (Descurainia sophia, Capsella bursa-pastoris, Galium aparine, Stellaria media, Lithospermum arvense, Rorippa indica, Alopecurus aequalis, Beckmannia syzigachne, Sclerochloa dura, Phleum paniculatum, Bromus japonicus, Aegilops tauschii, Phalaris arundinacea, Amaranthus retroflexus, Chenopodiaceae, Commelina communis, Sonchus arvensis, convolvulus arvensis, Cirsium setosum, Solanum nigrum, Acalypha australis, Digitaria sanguinalis, Echinochloa crusgalli, Setaria viridis, Setaria glauca, Leptochloa chinensis, Monochoria vaginalis, Sagittaria trifolia, Scirpus juncoides, Cyperus rotundus, Cyperus iria, Cyperus difformis, Fimbristylis, Portulaca oleracea, Xanthium sibiricum, Pharbitis nil) and major crop seeds (wheat, corn, rice, soybean, cotton, oilseed rape, millet, sorghum, potato, sesame, ricinus) were placed in plastic pots filled with soil, then covered with 0.5-2 cm of soil, allowed to grow in a good greenhouse environment. After 2 weeks of sowing, the test plants were treated in the 2 leaf stage. The tested compounds of the present invention were respectively dissolved in acetone, then added with Tween 80 and 1.5 liter/ha of emulsifiable concentrate of methyl oleate as synergist, diluted with a certain amount of water to obtain a solution with a certain concentration, and sprayed with a spray tower onto the plants. After the application, the plants were cultured for 15 days in the greenhouse, and then the experimental results of the weeding were counted. The doses of the used compounds were 500, 250, 125, 60, 30, 15 g/ha, and the averages were obtained by repeating for three times.

The subject of assay [2] is Amaranthus retroflexus. Description: Weeding effect in post-emergence stage. Type of assay: in vivo. The following applies: 250 g/ha; 2 leaf stage; 15 days after application; fresh weight control rate.
Excerpt: as §1, §2, §3

The text below walks through data of US12643871B2, “Aryl formamide compound containing chiral sulfur oxide or salt thereof, preparation method, herbicidal composition and use thereof” (Qingdao Kingagroot Chemical Compound Co., Ltd., priority 2019, dated 2026).

SMILES strings stand for the structures.

For `Cc1nnc(NC(=O)c2ccc(C(F)(F)F)c([S@+]([O-])CCC(C)(C)C)c2F)o1` [Compound 13], the “weeding effect in post-emergence stage, activity level (growth control rate), Echinochloa crusgali” value (from here on “weeding effect … Echinochloa crusgali”) in assay [1] is 5 (Level 5: growth control rate is above 85%). Moreover, the “weeding effect in post-emergence stage, activity level (growth control rate), Amaranthus retroflexus” value (“weeding effect … Amaranthus retroflexus” below) in assay [2] is recorded as 5 (Level 5: growth control rate is above 85%).

For `CCCCCCC[S@@+]([O-])c1c(C(F)(F)F)ccc(C(=O)Nc2nnc(C)o2)c1F` [Compound 14], the “weeding effect … Echinochloa crusgali” value in assay [1] was 5 (Level 5: growth control rate is above 85%). The “weeding effect … Amaranthus retroflexus” value in assay [2] is 5 (Level 5: growth control rate is above 85%).

On to `Cc1nnc(NC(=O)c2ccc(C(F)(F)F)c([S@+]([O-])CCC3CCCCC3)c2F)o1` [Compound 18], for which the “weeding effect … Echinochloa crusgali” value in assay [1] was 5 (Level 5: growth control rate is above 85%). Moreover, the “weeding effect … Amaranthus retroflexus” value in assay [2] is 5 (Level 5: growth control rate is above 85%).

With `Cc1nnc(NC(=O)c2ccc(C(F)(F)F)c([S+]([O-])C#N)c2F)o1` (stereo not drawn) [Compound 51], the “weeding effect … Echinochloa crusgali” value in assay [1] is reported as 5 (Level 5: growth control rate is above 85%). Moreover, the “weeding effect … Amaranthus retroflexus” value in assay [2] is given as 5 (Level 5: growth control rate is above 85%).

In the case of `Cc1nnc(NC(=O)c2ccc(C(F)(F)F)c([S@@+]([O-])C(=O)c3ccco3)c2F)o1` [Compound 171], the “weeding effect … Echinochloa crusgali” value in assay [1] was 5 (Level 5: growth control rate is above 85%). The “weeding effect … Amaranthus retroflexus” value in assay [2] is recorded as 5 (Level 5: growth control rate is above 85%).

On to `Cc1nnc(NC(=O)c2ccc(C(F)(F)F)c([S@@+]([O-])C(=O)N(C)C)c2F)o1` [Compound 176], for which the “weeding effect … Echinochloa crusgali” value in assay [1] is listed as 5 (Level 5: growth control rate is above 85%). Also, in assay [2], the “weeding effect … Amaranthus retroflexus” value is listed as 5 (Level 5: growth control rate is above 85%).

On to `Cc1nnc(NC(=O)c2ccc(C(F)(F)F)c([S@+]([O-])CC(=O)N(C)C)c2F)o1` [Compound 178], for which the “weeding effect … Echinochloa crusgali” value in assay [1] is recorded as 5 (Level 5: growth control rate is above 85%). In addition, the “weeding effect … Amaranthus retroflexus” value in assay [2] is listed as 5 (Level 5: growth control rate is above 85%).

For the compound `Cc1nnc(NC(=O)c2ccc(C(F)(F)F)c([S@+]([O-])CC=O)c2F)o1` [Compound 191], the “weeding effect … Echinochloa crusgali” value in assay [1] was 5 (Level 5: growth control rate is above 85%). Besides, in assay [2], the “weeding effect … Amaranthus retroflexus” value is 5 (Level 5: growth control rate is above 85%).

In the case of `Cc1nnc(NC(=O)c2ccc(C(F)(F)F)c([S@+]([O-])CCC=O)c2F)o1` [Compound 192], in assay [1], the “weeding effect … Echinochloa crusgali” value was 5 (Level 5: growth control rate is above 85%). The “weeding effect … Amaranthus retroflexus” value in assay [2] was 5 (Level 5: growth control rate is above 85%).

Consider `CC(=O)C[S@@+]([O-])c1c(C(F)(F)F)ccc(C(=O)Nc2nnc(C)o2)c1F` [Compound 193], for which, in assay [1], the “weeding effect … Echinochloa crusgali” value is 5 (Level 5: growth control rate is above 85%). For the same compound, in assay [2], the “weeding effect … Amaranthus retroflexus” value is recorded as 5 (Level 5: growth control rate is above 85%).

In the case of `COC(=O)C[S@@+]([O-])c1c(C(F)(F)F)ccc(C(=O)Nc2nnc(C)o2)c1F` [Compound 196], in assay [1], the “weeding effect … Echinochloa crusgali” value is listed as 5 (Level 5: growth control rate is above 85%). In addition, the “weeding effect … Amaranthus retroflexus” value in assay [2] is given as 5 (Level 5: growth control rate is above 85%).

In the case of `Cc1nnc(NC(=O)c2ccc(C(F)(F)F)c([S@+]([O-])CC(=O)OC(C)(C)C)c2F)o1` [Compound 199], the “weeding effect … Echinochloa crusgali” value in assay [1] is 5 (Level 5: growth control rate is above 85%). In addition, the “weeding effect … Amaranthus retroflexus” value in assay [2] was 5 (Level 5: growth control rate is above 85%).

Consider `Cc1nnc(NC(=O)c2ccc(C(F)(F)F)c([S@@+]([O-])COC(=O)C(C)(C)C)c2F)o1` [Compound 202], for which the “weeding effect … Echinochloa crusgali” value in assay [1] was 5 (Level 5: growth control rate is above 85%). In assay [2], the “weeding effect … Amaranthus retroflexus” value is 5 (Level 5: growth control rate is above 85%).

In the case of `Cc1nnc(NC(=O)c2ccc(C(F)(F)F)c([S+]([O-])[Si](C)(C)C)c2F)o1` (stereo not drawn) [Compound 206], the “weeding effect … Echinochloa crusgali” value in assay [1] is given as 5 (Level 5: growth control rate is above 85%). Further, the “weeding effect … Amaranthus retroflexus” value in assay [2] is 5 (Level 5: growth control rate is above 85%).

Take `C#CCN(C(=O)c1ccc(C(F)(F)F)c([S@+]([O-])CC)c1F)c1nnc(C)o1` [Compound 214]: the “weeding effect … Echinochloa crusgali” value in assay [1] is listed as 5 (Level 5: growth control rate is above 85%). In assay [2], the “weeding effect … Amaranthus retroflexus” value is on record as 5 (Level 5: growth control rate is above 85%).

As to `CC[S@@+]([O-])c1c(C(F)(F)F)ccc(C(=O)N(C(C)=O)c2nnc(C)o2)c1F` [Compound 216], the “weeding effect … Echinochloa crusgali” value in assay [1] is 5 (Level 5: growth control rate is above 85%). In assay [2], the “weeding effect … Amaranthus retroflexus” value was 5 (Level 5: growth control rate is above 85%).

Turning to `CC[S@@+]([O-])c1c(C(F)(F)F)ccc(C(=O)N(C(=O)c2cn(C)nc2C)c2nnc(C)o2)c1F` [Compound 223], the “weeding effect … Echinochloa crusgali” value in assay [1] is 5 (Level 5: growth control rate is above 85%). Also, the “weeding effect … Amaranthus retroflexus” value in assay [2] is 5 (Level 5: growth control rate is above 85%).

Take `CC[S@@+]([O-])c1c(C(F)(F)F)ccc(C(=O)N(C(=O)OC)c2nnc(C)o2)c1F` [Compound 231]: the “weeding effect … Echinochloa crusgali” value in assay [1] is recorded as 5 (Level 5: growth control rate is above 85%). Also, the “weeding effect … Amaranthus retroflexus” value in assay [2] is recorded as 5 (Level 5: growth control rate is above 85%).

As to `COc1c(C(=O)Nc2nnc(C)o2)ccc(C(F)(F)F)c1[S@+]([O-])CCc1ccccc1` [Compound 318], the “weeding effect … Echinochloa crusgali” value in assay [1] is given as 5 (Level 5: growth control rate is above 85%). Besides, the “weeding effect … Amaranthus retroflexus” value in assay [2] was 5 (Level 5: growth control rate is above 85%).

`COc1c(C(=O)Nc2nnc(C)o2)ccc(C(F)(F)F)c1[S@+]([O-])CCO[Si](C)(C)C(C)(C)C` [Compound 349]: the “weeding effect … Echinochloa crusgali” value in assay [1] is listed as 5 (Level 5: growth control rate is above 85%). Further, in assay [2], the “weeding effect … Amaranthus retroflexus” value was 5 (Level 5: growth control rate is above 85%).

For the compound `COc1c(C(=O)Nc2nnc(C)o2)ccc(C(F)(F)F)c1[S@+]([O-])CC(C)=O` [Compound 351], in assay [1], the “weeding effect … Echinochloa crusgali” value was 5 (Level 5: growth control rate is above 85%). For the same compound, the “weeding effect … Amaranthus retroflexus” value in assay [2] is on record as 5 (Level 5: growth control rate is above 85%).
